Data as given in patent publication US20160289678A1, “USE OF MICRORNA 146-A IN THE DIAGNOSIS, TREATMENT AND PREVENTION OF PICORNAVIRUS INFECTION AND MICRORNA 146-A ANTAGONISTS” (priority 2013, published 2016).
Entries after “also recorded” stand apart in the source; their conditions may differ.

How the values were obtained:
IFNβ [1] = experiment: IFNβ expression in EV71-infected mice by real-time RT-PCR; type: in vivo, C57BL/6 mice; conditions: EV71-infected wild-type mice treated at 0 and 1 d.p.i., vs mock infection and negative control
Excerpt: (§1) The sequence of LNA antagomiR-146a used in the example is 5′-[…]-3′ (SEQ ID NO:20). Even though the importance of miR-146a in EV71 pathogenesis was clearly elucidated by using miR-146a^−/− mice model, however, the therapeutic potential of miR-146a silencing should be practically evaluated in EV71 infection mouse model. LNA antagomiR-146a, designed locked nucleic acid, was first injected intraperitoneally to evaluate the potential adverse events caused by LNA antagomiRs. […] After making sure the safety of LNA antagomiRs, we next introduced LNA AntagomiR-146a into wild-type mice before or after virus infection as indicated and monitored clinical symptoms of mice daily. […] To verify whether attenuation of virus-induced miR-146a by LNA antagomiR-146a could restore the expression of miR-146a targets, IRAK1 and TRAF6 in assayed organs were measured by Western blot.
(§2) Individual Real-Time RT-PCR. Quantification of miR-146a, Homo RNU6B, mus U6 snRNA , mus IFNβ, and mus β-actin were performed using TaqMan microRNA individual assays or TaqMan gene expression assays (000468, 001093, 001973, Mm00439546_s1 and Mm00607939_s1; Life Technologies) according to the manufacturer's instructions. […] The threshold cycle (CT) is defined as the fractional cycle number at which the fluorescence passes the fixed threshold. […]
(§3) Mouse-adapted EV71 and LNA AntagomiRs Administration. […] The survival of mice was monitored daily. […]

mEV71 = experiment: LNA antagomiR injection in EV71 infection mouse model: mice survival; type: in vivo, C57BL/6 mice
Excerpt: as §1
Mouse-adapted EV71 and LNA AntagomiRs Administration. C57BL/6 mice were provided by the Knockout Mouse Core Laboratory of National Taiwan University Center of Genomic Medicine, housed in specific pathogen-free animal rooms, and treated according to guidelines from the National Taiwan University College of Medicine and College of Public Health Institutional Animal Care and Use Committee (IACUC). Mouse-adapted EV71 (mEV71) was established referring to a report published by Wang, Y. F. in 2004. mEV71 was generated after four serial passages in neonate mice started from parental human EV71 Parental human EV71 was injected intraperitoneally and next generation mEV71, called 1st mEV71, was isolated from neonate mice brain tissue at 3 d.p.i. The isolated 1st mEV71 was then propagated in RD cells. The passage procedures were performed four times. To determine the 50% lethal dose (LD50), seven-day-old wild-type C57BL/6 mice were fed with indicated PFUs of mEV71. The survival of mice was monitored daily. For wild-type C57BL/6 mice and miR-146a−/− C57BL/6 mice inoculation, each group (n=9 to 13) housed in the same cage was infected with indicated PFUs of mEV71 through the oral route, and the control group was fed with culture medium. The animals were monitored daily, and clinical signs, weight and mortality were recorded. All mouse tissues were obtained from scarified mice with significant clinical illness signs or at 3 d.p.i. if mice had no significant illness signs. The tissues were further assayed for real-time RT-PCR, Western blot, plaque assay, immunohistochemistry staining, and so on. For LNA antagomiRs injection, wild-type mice were injected with LNA antagomiR-146a (1.2 mg/kg) or LNA antagomiR negative control (1.2 mg/kg) through the intraperitoneal route before or after virus infection as indicated and monitored daily. The institutional animal care and use committee (IACUC) approved all animal protocols.

IRAK1 and TRAF6 [2] = experiment: IRAK1 and TRAF6 expression in organs of mEV71-infected mice by Western blot; type: in vivo, C57BL/6 mice; conditions: specifically heart, lung and muscle
Excerpt: as §1
Western Blot. Cells or tissues were harvested in RIPA lysis buffer [50 mM Tris-HCl (pH 7.4), 150 mM NaCl, 1 mM EDTA, 1% Triton X-100, 0.1% SDS, 1% sodium deoxycholate, 1 mM PMSF, and protease inhibitor cocktail], and the protein concentration was measured by the BCA protein assay (BioRad). […]
Mouse-adapted EV71 and LNA AntagomiRs Administration. […] The survival of mice was monitored daily. […] The animals were monitored daily, and clinical signs, weight and mortality were recorded. […]

miR-146a = miR-146a expression in organs of mEV71-infected mice by real-time RT-PCR; type: in vivo, C57BL/6 mice; conditions: treatment at 0 and 1 d.p.i.; particularly intestine, muscle and lung; vs mock infection / negative control
Excerpt: as §1, §2, §3

[3] = Potential adverse events of LNA antagomiRs: HE staining and blood chemistry (liver, kidney, serum); type: in vivo, mice; conditions: intraperitoneal injection
Excerpt: as §1
Mouse-adapted EV71 and LNA AntagomiRs Administration. […] The survival of mice was monitored daily. […] The animals were monitored daily, and clinical signs, weight and mortality were recorded. […] For LNA antagomiRs injection, wild-type mice were injected with LNA antagomiR-146a (1.2 mg/kg) or LNA antagomiR negative control (1.2 mg/kg) through the intraperitoneal route before or after virus infection as indicated and monitored daily. […]

IFNβ [4] = experiment: IFNβ mRNA expression in EV71-infected RD cells by real-time RT-PCR; type: cell-based, Human; conditions: antagomiR-146a transfectants, EV71 infection
IRAK1 and TRAF6 [5] = experiment: IRAK1 and TRAF6 Western blot in EV71-infected Caco-2 cells; type: cell-based, Human; conditions: compared with negative controls
IRAK1 and TRAF6 [6] = experiment: IRAK1 and TRAF6 Western blot in EV71-infected RD cells; type: cell-based, Human; conditions: antagomiR transfected into host cells followed by virus infection
IFNβ promoter = IFNβ promoter luciferase assay in EV71-infected RD cells; type: cell-based, Human; conditions: henceforth 4 h.p.i., compared with negative control or mock transfection
Procedure: Luciferase Assay. All transfections were carried out in triplicate in 96-well plates. RD cells (1×10^4 per well) were seeded 24 h prior to transfection. The luciferase reporter constructs along with the control plasmids (pRL-TK Vector; Promega) were co-transfected into cells at the DNA ratio 5:1 in the presence of pSilencer miRNA expressing vectors (Life Technologies) as indicated by Lipofectamine LTX reagent (Life Technologies). After 48 h incubation, the Dual-Glo luciferase substrate (Promega) was added to each well and the luminescent signals were measured by Victor3 multilabel counter (PerkinElmer) according to the manufacturer's instructions. For IFNβ promoter assays, the reporter constructs were co-transfected with antagomiR-NC or antagomiR-146a into RD cells prior to virus infection. After 24 h incubation, all transfectants were infected with EV71 and assayed at indicated time points. The activity of Renilla luciferase was used as an internal control to normalize transfection efficiency.

TRAF6 and IRAK1 = TRAF6 and IRAK1 in mEV71-infected MEF cells; type: cell-based; conditions: MEF cells transfected, then mEV71 infection; vs antagomiR-NC
Excerpt: MEF cells were infected with mEV71, followed by quantification of miR-146a using real-time RT-PCR (n=3). MI, mock infection. * P-value <0.05 as compared with mock infection. (b) mEV71 infection suppressed IRAK1 and TRAF6 expressions in protein level in MEF cells. (c) Predicted mus miR-146a BSs within mus IRAK1 and TRAF6 3′UTRs (the first nucleotide following the stop codon was designated as +1). (d) The effect of the ectopic miR-146a on the endogenous IRAK1 and TRAF6. MEF cells were transfected with the miR-146a overexpressing vector or negative control and assayed for IRAK1 and TRAF6 and for miR-146a by western blot and real-time RT-PCR, respectively (n=3). MT, mock transfection; NC, negative control. (e) AntagomiR-146a restored mEV71-induced suppression of TRAF6 and IRAK1 in MEF cells. MEF cells were transfected with antagomiR-146a or antagomiR-NC followed by mEV71 infection. All data presented are mean±s.d. and all P-values are calculated by Student's t-test.

Row | Substance | IFNβ expression (IFNβ [1]) | IFNβ expression (IFNβ [1]; listed as LNA is antagomiR-146a) | survival (mEV71; injection 1 hour before virus infection (0 d.p.i.), 1.2 mg/kg intraperitoneal, 2*10^8 PFU mEV71) | survival (mEV71; injection at 1 d.p.i., 1.2 mg/kg intraperitoneal, 2*10^8 PFU mEV71) | survival (mEV71; injection at 2 d.p.i., 1.2 mg/kg intraperitoneal) | survival (mEV71; injection at 3 d.p.i.) | survival probability (mEV71; intraperitoneal, injected before (0 d.p.i.) or after (1 and 2 d.p.i.) virus infection) | IRAK1 and TRAF6 expression (IRAK1 and TRAF6 [2]) | virus-induced miR-146a expression (miR-146a) | pathological changes (HE staining and blood chemistry of liver, kidney, serum) [3] | IFNβ mRNA expression (IFNβ [4]) | IFNβ mRNA expression (IFNβ [4]; listed as AntagomiR-146a) | IRAK1 and TRAF6 expression (IRAK1 and TRAF6 [5]) | IRAK1 and TRAF6 expression (IRAK1 and TRAF6 [5]; listed as AntagomiR-146a) | IRAK1 and TRAF6 expression (IRAK1 and TRAF6 [6]) | IRAK1 and TRAF6 expression (IRAK1 and TRAF6 [6]; listed as AntagomiR-146a) | IFNβ promoter activity (IFNβ promoter) | IFNβ promoter activity (IFNβ promoter; listed as AntagomiR-146a) | mEV71-induced suppression of TRAF6 and IRAK1 (TRAF6 and IRAK1)
1 | 5′-AACCCATGGAATTCAGTTCTCA-3′ (LNA-modified, pattern not given here) [LNA antagomiR-146a, designed locked nucleic acid miR-146a antagonist, 22 nucleotides] | regain of IFNβ production | induced | 80% | 70% | 56% | did not improve mice survival | improves survival probability | restored | neutralized; also recorded: dramatically suppressed | no significant pathological changes | – | – | – | – | – | – | – | – | –
2 | antagomiR-146a: specific antagomiR (Life Technologies) transfected into cells to neutralize virus-induced miR-146a (antisense AACCCATGGAATTCAGTTCTCA; LNA-modified, pattern not given here) | – | – | – | – | – | – | – | – | – | – | increased dramatically | eliminated the suppression | restored | restores | restored | recovered remarkably | attenuated | restored | restored
